Patent US12624018B1, “Inhibitors of RIPK2 and medical uses thereof” (Odyssey Therapeutics, Inc., priority 2022, dated 2026)
pIC50: −log10 of the molar value. Read-outs that look alike come from different tables or passages of the source.

Key:
RIPK2 enzyme = target: T1, RIPK2 enzyme (Homo sapiens, UniProt O43353); assay: RIPK2 inhibition (ADP-Glo Kinase Assay); type: biochemical; details: RIPK2 5 nM, ATP 150 μM, MBP substrate, read-out: RIPK2 IC50
T1 construct: purchased Carna 09-128
Procedure, shortened: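 Swine MBP substrate; compound and 5 nM RIPK2 first mixed for 30 min at room temperature; buffer pH 7.5 HEPES 50 mM with 10 mM MgCl2, 2 mM DTT, 1 mM EGTA, Brij-35, BSA.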

human NOD2 signaling = assay: Inhibition of human NOD2 signaling in HEK-Blue-hNOD2 cells (L18-MDP stimulated, SEAP reporter); type: cell-based; details: NOD2 ligand stimulation, SEAP reporter, read-out: hNOD2 IC50
Procedure, shortened: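 Read-out is SEAP absorbance at 620 nm after 3 h QUANTI-Blue development of supernatant from HEK293 cells carrying NOD2 and a SEAP reporter (12500/well). Cells got compound (10 points, 3-fold dilutions) and 0.5 ng/mL L18-MDP for 24 h at 37 °C; percent inhibition vs stimulated/unstimulated controls, 4-parameter IC50.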

[1] = tested on: TNF-alpha secretion in human whole blood; assay: Inhibition of TNF-alpha secretion in human whole blood (IFN-gamma primed, L18-MDP stimulated); type: cell-based; details: L18-MDP 100 ng/mL, read-out: Human Whole Blood TNFα IC50
Experimental: Materials: Assay medium consisted of RPMI 1640 medium (catalogue number: 11875119) and 10% heat inactivated FBS (Cytvia). U-PLEX Biomarker Assay (cat #K15067L-4) to detect levels of TNF-alpha was purchased from Meso Scale Discovery. Heparinized whole blood from healthy donors/volunteers was obtained through Research Blood Components, LLC.
Test compounds were prepared into a 10 mM DMSO solution and serially diluted into 9 points using a 3-fold dilution in a 96 well plate. A 10× working stock solution of recombinant human IFN-gamma (final concentration of 10 ng/mL) was prepared in assay medium and used to prepare a 10× solution of test compound. 20 μL of 10×IFN-gamma and test compound (or DMSO control) was added to a 96-well plate. 160 μL of heparinized whole blood obtained from healthy donors was dispensed into individual wells of the 96-well plate and placed on a plate shaker (150 rpm) and incubated for 60 min at 37° C. in a CO2 incubator. Subsequently, 20 μL of L18-MDP (final concentration of 100 ng/mL) was added to the appropriate wells and further incubated for 16 hours on a plate shaker (150 rpm) at 37° C. in a CO2 incubator. The final concentration of DMSO was 0.05% (v/v) in all wells. After incubation, 100 μL of DPBS was added per well, mixed by shaking at 500 rpm for 2 minutes, followed by centrifugation (400×g for 10 minutes) and collection of supernatants. TNF-alpha in supernatants was measured using MSD immunoassay (MesoScale Discovery). 4-parametric curve fit was used to determine the test compound concentration that results in 50% reduction of TNF-alpha concentration in supernatant relative to assay controls.

[2] = target: T2, RIPK2 and XIAP protein-protein interaction (Homo sapiens, UniProt O43353); assay: Inhibition of the interaction of RIPK2 with XIAP (NanoBRET in HEK293T cells); type: cell-based; details: RIPK2 HaloTag / XIAP NanoLuc, read-out: NanoBRET Scaffolding IC50
T2 construct: the N-terminus of full-length RIPK2 was appended with the HaloTag fusion protein; expressed in transfected cells; host or cells: HEK293T
Procedure, shortened: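 HEK293T cells transiently co-transfected with HaloTag-RIPK2 (N-terminal) and XIAP-NanoLuc (C-terminal) full-length fusions, grown 24 h at 37° C. in Opti-MEM with 4% FBS. Compounds tested as 10-point 3-fold dilutions; NanoBRET ratio taken as 618 nm acceptor over 460 nm donor emission.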

[3] = Homo sapiens, HEK-Blue hNOD2, HEK-Blue-hNOD2 cells

T2 sequence (O43353 whole entry, the tested form may be a part): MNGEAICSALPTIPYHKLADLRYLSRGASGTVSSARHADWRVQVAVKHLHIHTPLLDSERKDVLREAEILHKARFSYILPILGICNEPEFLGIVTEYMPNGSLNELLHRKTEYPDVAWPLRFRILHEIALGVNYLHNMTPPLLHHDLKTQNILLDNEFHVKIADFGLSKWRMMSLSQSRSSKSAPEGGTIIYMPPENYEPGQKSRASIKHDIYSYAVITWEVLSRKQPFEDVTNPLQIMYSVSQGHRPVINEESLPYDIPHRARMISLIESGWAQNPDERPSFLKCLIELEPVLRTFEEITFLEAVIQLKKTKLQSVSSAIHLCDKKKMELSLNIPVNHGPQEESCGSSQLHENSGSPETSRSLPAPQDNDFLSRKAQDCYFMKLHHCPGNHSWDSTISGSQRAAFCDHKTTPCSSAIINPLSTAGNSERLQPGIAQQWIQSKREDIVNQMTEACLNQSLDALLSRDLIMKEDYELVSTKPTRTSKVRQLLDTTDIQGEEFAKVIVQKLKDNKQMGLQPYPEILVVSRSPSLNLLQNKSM
T1 sequence (O43353 1-299 limits assumed): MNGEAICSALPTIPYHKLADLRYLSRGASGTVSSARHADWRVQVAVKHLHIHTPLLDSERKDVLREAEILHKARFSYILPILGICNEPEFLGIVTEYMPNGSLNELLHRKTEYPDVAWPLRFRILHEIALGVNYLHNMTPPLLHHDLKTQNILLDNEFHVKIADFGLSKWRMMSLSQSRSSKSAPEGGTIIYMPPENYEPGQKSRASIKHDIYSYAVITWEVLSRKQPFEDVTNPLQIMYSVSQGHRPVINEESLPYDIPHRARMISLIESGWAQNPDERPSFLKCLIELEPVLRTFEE

CC(C)(C)n1cc(NC(=O)Cc2ccc(Oc3ccnc4ccc(S(C)(=N)=O)cc34)c(Cl)c2)cn1 (single isomer, unassigned) [Compound 197, N-(1-(tert-butyl)-1H-pyrazol-4-yl)-2-(3-chloro-4-((6-(S-methylsulfonimidoyl)quinolin-4-yl)oxy)phenyl)acetamide]
pIC50 (RIPK2 enzyme): > 8.60
pIC50 (human NOD2 signaling; [3]): 8.40
pIC50 ([1]; Homo sapiens, 16 h): 7.62
pIC50 [2]: 7.03

Cc1cc(C(C)C(=O)Nc2cnn(C(C)(C)C)c2)ccc1Oc1ccnc2ccc(S(C)(=O)=O)cc12 (single isomer, unassigned) [Compound 215, N-(1-(tert-butyl)-1H-pyrazol-4-yl)-2-(3-methyl-4-((6-(methylsulfonyl)quinolin-4-yl)oxy)phenyl)propanamide]
pIC50 (RIPK2 enzyme): > 8.60
pIC50 (human NOD2 signaling; [3]): 8.49
pIC50 ([1]; Homo sapiens, 16 h): 7.26
pIC50 [2]: 7.41

Cc1c(Oc2ccnc3ccc(S(=N)(=O)C4CC4)cc23)ccc(CC(=O)Nc2cnn(C(C)(C)C)c2)c1F (single isomer, unassigned) [Compound 441, N-(1-(tert-butyl)-1H-pyrazol-4-yl)-2-(4-((6-(cyclopropanesulfonimidoyl)quinolin-4-yl)oxy)-2-fluoro-3-methylphenyl)acetamide]
pIC50 (RIPK2 enzyme): > 8.60
pIC50 (human NOD2 signaling; [3]): 9.70
pIC50 ([1]; Homo sapiens, 16 h): 8.22
pIC50 [2]: 8.10

Cc1c(Oc2ccnc3ccc(S(=N)(=O)C4CC4)cc23)ccc(CC(=O)Nc2cnn(C(C)(C)C)c2)c1F (single isomer, unassigned) [Compound 442, N-(1-(tert-butyl)-1H-pyrazol-4-yl)-2-(4-((6-(cyclopropanesulfonimidoyl)quinolin-4-yl)oxy)-2-fluoro-3-methylphenyl)acetamide]
pIC50 (RIPK2 enzyme): > 8.60
pIC50 (human NOD2 signaling; HEK-Blue-hNOD2 cells): 9.70
pIC50 ([1]; 16 hours): 8.15
pIC50 [2]: 8.52

Cc1cc(CC(=O)Nc2cnn(C(C)(C)C)c2)ccc1Oc1ccnc2ccc(S(=N)(=O)C3CC3)cc12 (single isomer, unassigned) [Compound 543, N-(1-(tert-butyl)-1H-pyrazol-4-yl)-2-(4-((6-(cyclopropanesul-fonimidoyl)quinolin-4-yl)oxy)-3-methylphenyl) acetamide]
pIC50 (RIPK2 enzyme): > 8.60
pIC50 (human NOD2 signaling; [3]): 8.92
pIC50 ([1]; Homo sapiens, 16 h): 8.52
pIC50 [2]: 7.11

CCS(=O)(=O)c1ccc2nccc(Oc3cc(F)c(CC(=O)Nc4cnn(C(C)(C)C)c4)cc3C)c2c1 [Compound 306, N-(1-(tert-butyl)-1H-pyrazol-4-yl)-2-(4-((6-(ethylsulfonyl)quinolin-4-yl)oxy)-2-fluoro-5-methylphenyl)acetamide]
pIC50 (RIPK2 enzyme): > 8.60
pIC50 (human NOD2 signaling; [3]): 8.89
pIC50 ([1]; Homo sapiens, 16 h): 8.10

CNC(=O)c1cc2c(Oc3c(C)cc(CC(=O)Nc4cnn(C(C)(C)C)c4)cc3C)ccnc2cc1F [Compound 582, 4-(4-(2-((1-(tert-butyl)-1H-pyrazol-4-yl)amino)-2-oxoethyl)-2,6-dimethylphenoxy)-7-fluoro-N-methylquinoline-6-carboxamide]
pIC50 (RIPK2 enzyme): > 8.60
pIC50 (human NOD2 signaling; [3]): 9.22
pIC50 [2]: 7.44

[2H]C([2H])([2H])NC(=O)c1cc2c(Oc3c(C)cc(CC(=O)Nc4cnn(C(C)(C)C)c4)cc3C)ccnc2cc1F [Compound 583, 4-(4-(2-((1-(tert-butyl)-1H-pyrazol-4-yl)amino)-2-oxoethyl)-2,6-dimethylphenoxy)-7-fluoro-N-(methyl-d3)quinoline-6-carboxamide]
pIC50 (RIPK2 enzyme): > 8.60
pIC50 (human NOD2 signaling; [3]): 8.92
pIC50 [2]: 7.37

Cc1cc(CC(=O)Nc2cnn(C(C)(C)C)c2)cc(Cl)c1Oc1ccnc2cc(F)c(C(N)=O)cc12 [Compound 584, 4-(4-(2-((1-(tert-butyl)-1H-pyrazol-4-yl)amino)-2-oxoethyl)-2-chloro-6-methylphenoxy)-7-fluoroquinoline-6-carboxamide]
pIC50 (RIPK2 enzyme): > 8.60
pIC50 (human NOD2 signaling; [3]): 8.89
pIC50 [2]: 7.35

CNC(=O)c1cc2c(Oc3c(C)cc(CC(=O)Nc4cnn(C(C)(C)C)c4)cc3Cl)ccnc2cc1F [Compound 585, 4-(4-(2-((1-(tert-butyl)-1H-pyrazol-4-yl)amino)-2-oxoethyl)-2-chloro-6-methylphenoxy)-7-fluoro-N-methylquinoline-6-carboxamide]
pIC50 (RIPK2 enzyme): > 8.60
pIC50 (human NOD2 signaling; [3]): 9.05
pIC50 [2]: 7.53
